From US20160115540A1, “PRODRUGS AND DRUGS” (Biogen MA Inc., priority 2013, published 2016)
Structures can show the parent of a compound that is named as a salt.

Tested on: blood, cerebellum, spinal cord
Experiment: Transcriptional profiling, chronic dosing, EAE mice: blood, cerebellum, spinal cord
Type: in vivo
Settings: for Number of differentially expressed genes identified: Cerebellum / Number of differentially expressed genes identified: Spinal Cord / Number of differentially expressed genes identified: Whole blood: EAE, Chronic Dosing
Method: 2011 March 134(Pt3): 678-92. […] FIG. 17 depicts exemplary immunophenotyping panels used to analyze various immune cell populations (e.g., T cells, T regulatory cells, NK cells, B cells, myeloid cells). […] Animals were exposed to CO2 and whole blood collected via cardiac puncture. Two 100 μl aliquots of whole blood were collected in 1.5 mL microcentrifuge tubes and snap frozen in liquid nitrogen. Peripheral (liver, spleen, kidney and jejunum) and CNS brain (cerebellum, hippocampus, striatum and cortex) tissues were harvested and snap frozen in liquid nitrogen, with special care taken to collect tissues of similar size and from the same location. All samples were stored at -80° C. until RNA extraction was conducted. For RNA preparation, frozen tissues were placed in 2 mL RNAse-free 96-well blocks with 1.5 mL QIAzol Lysis Reagent (QIAgen) and a 3.2 mm stainless steel bead (BioSpec Products, Bartlesville, Okla.). Tissues were disrupted for four cycles of 45 seconds in a Mini-Beadbeater (Biospec Products). RNA was extracted in chloroform and the aqueous phase was mixed with an equal volume of 70% ethanol. Extracted RNA was applied to RNeasy 96 plates and purified by the spin method according to the manufacturer's protocol (RNeasy 96 Universal Tissue Protocol, QIAgen, Hilden Germany). 50 ul of snap frozen mouse blood was re-suspended in lysis buffer with proteinase K and arrayed into deep-well plates for automated RNA extraction. RNA extractions were completed on […] (Beckman Coulter, Indianapolis, Ind.) using Agencourt RNAdvance Blood kit (Part number A35604) according to the manufacturer's specifications. RNA integrity was assessed using the HT RNA reagent kit (Part number 760410, Caliper Life Sciences, Hopkinton, Mass.) using a LabChip GX (PerkinElmer, Waltham, Mass.). RNA samples with a RQS score of >8.0 were considered high quality for downstream microarray processing. […] Washing and staining of the hybridized arrays were completed as described in the GeneChip Expression analysis technical manual for HT plate arrays using the Genechip® Array Station (Affymetrix, Santa Clara, Calif.) with modifications as described in […] et al. The processed GeneChip® plate arrays were scanned using GeneTitan scanner (Affymetrix, Santa Clara, Calif.). Affymetrix scans were subject to quality control (QC) measures. These tests included a visual inspection of the distribution of raw signal intensities and an assessment of RNA degradation, relative log expression (RLE), and normalized unscaled standard error (NUSE). All sample scans that passed these QC metrics were included in the analysis. […] Nucleic Acids Res 2003; 31:e15; Li C, et al. Genome Biol 2001; 2:[…]0032). […] Stat Appl Genet Mol Biol 2004; 3:Article3). […] Springer Science+Business Media 2005).

[1] = 100 mpk DMF-vs-90 mpk MMF, 7 h after last dosing
[2] = 100 mpk DMF-vs-90 mpk MMF, 12 h after last dosing
[3] = 100 mpk DMF-vs-Vehicle, 7 h after last dosing
[4] = 100 mpk DMF-vs-Vehicle, 12 h after last dosing
[5] = spinal cord, 100DMF-vs-90MMF, 7 h
[6] = spinal cord, 100DMF-vs-90MMF, 12 h
[7] = spinal cord, 100DMF-vs-Veh, 7 h
[8] = spinal cord, 100DMF-vs-Veh, 12 h
[9] = tissue not given, 100DMF-vs-90MMF, 7 h
[10] = tissue not given, 100DMF-vs-90MMF, 12 h
[11] = 90 mpk MMF-vs-Vehicle, 7 h after last dosing
[12] = 90 mpk MMF-vs-Vehicle, 12 h after last dosing
[13] = spinal cord, 100MMF-vs-Veh, 7 h
[14] = spinal cord, 100MMF-vs-Veh, 12 h
[15] = tissue not given, 100MMF-vs-Veh, 12 h

What does the source list for `COC(=O)/C=C/C(=O)OC` [DMF, dimethyl fumarate]?
Number of differentially expressed genes identified: Cerebellum [1]: 2; Number of differentially expressed genes identified: Spinal Cord [1]: 2; Number of differentially expressed genes identified: Whole blood [1]: 0; Number of differentially expressed genes identified: Cerebellum [2]: 3; Number of differentially expressed genes identified: Spinal Cord [2]: 40; Number of differentially expressed genes identified: Whole blood [2]: 0; Number of differentially expressed genes identified: Cerebellum [3]: 0; Number of differentially expressed genes identified: Spinal Cord [3]: 3; Number of differentially expressed genes identified: Whole blood [3]: 8; Number of differentially expressed genes identified: Cerebellum [4]: 0; Number of differentially expressed genes identified: Spinal Cord [4]: 3; Number of differentially expressed genes identified: Whole blood [4]: 8; FC 2900055J20Rik (1430675_PM_at) [5]: −1.58; FC LOC100047123 (1446154_PM_at) [5]: −1.56; FC 1423020_PM_at (no gene symbol) [6]: 1.59; FC 1440425_PM_at (no gene symbol) [6]: 1.57; FC 1440449_PM_at (no gene symbol) [6]: 1.61; FC 1441606_PM_at (no gene symbol) [6]: 1.57; FC 1442650_PM_at (no gene symbol) [6]: 1.92; FC 1442813_PM_at (no gene symbol) [6]: 2.21; FC 1443212_PM_at (no gene symbol) [6]: 1.82; FC 1443237_PM_at (no gene symbol) [6]: 1.59; FC 1444001_PM_at (no gene symbol) [6]: 1.58; FC 1446481_PM_at (no gene symbol) [6]: 1.59; FC 1447354_PM_at (no gene symbol) [6]: 1.54; FC 1458147_PM_at (no gene symbol) [6]: 1.60; FC 1458697_PM_at (no gene symbol) [6]: 1.72; FC 1459235_PM_at (no gene symbol) [6]: 1.65; FC 1459288_PM_at (no gene symbol) [6]: 1.66; FC 1459310_PM_at (no gene symbol) [6]: 1.87; FC 2410089E03Rik 1443422_PM_at [6]: 1.55; FC 2410089E03Rik (1458493_PM_a_at) [6]: 2.00; FC 4933439F18Rik (1427068_PM_x_at) [6]: 1.52; FC 6330436F06Rik (1433015_PM_at) [6]: 1.52; FC 9330156P08Rik (1458073_PM_at) [6]: 2.08; FC A230006K03Rik (1432408_PM_a_at) [6]: 1.59; FC A730034C02 /// Mtap2 (1421327_PM_at) [6]: 1.69; FC B230112I24Rik (1433187_PM_at) [6]: 1.64; FC BC066028 (1439850_PM_at) [6]: 1.56; FC Cdk14 (1453956_PM_a_at) [6]: 1.76; FC Dnajc27 (1434946_PM_at) [6]: 1.85; FC Dnm3 (1446265_PM_at) [6]: 1.54; FC Fgf14 (1449958_PM_a_at) [6]: 1.76; FC Flnb (1445534_PM_at) [6]: 1.55; FC Gzma (1417898_PM_a_at) [6]: −5.32; FC Htr2c (1450477_PM_at) [6]: 1.65; FC Kif22 (1423813_PM_at) [6]: −1.68; FC Per3 (1442243_PM_at) [6]: 1.54; FC Pole (1448650_PM_a_at) [6]: −1.60; FC Rgs7bp (1437559_PM_at) [6]: 1.50; FC Sema6d (1446536_PM_at) [6]: 1.57; FC Sgol1 (1418919_PM_at) [6]: −1.61; FC Slc25a27 (1440090_PM_at) [6]: 1.56; FC Zfp398 (1456639_PM_at) [6]: 1.57; FC Aox1 (1419435_PM_at) [7]: 1.68; FC Rnf128 (1418318_PM_at) [7]: 1.72; FC Rnf128 (1449036_PM_at) [7]: 1.60; FC 1446104_PM_at (no gene symbol) [8]: 1.57; FC Gzma (1417898_PM_a_at) [8]: −4.64; FC Kif22 (1423813_PM_at) [8]: −1.62; FC 1459289_PM_at (no gene symbol) [9]: 1.52; FC Nr4a2 (1455034_PM_at) [9]: −1.51; FC 1444901_PM_at (no gene symbol) [10]: −1.68; FC Cyp4f16 /// Gm9705 (1430172_PM_a_at) [10]: 1.54; FC Nr4a3 (1438796_PM_at) [10]: −1.82

`COC(=O)/C=C/C(=O)O` [MMF, monomethyl fumarate] was tested. Which “Number of differentially expressed genes identified: Cerebellum” value [11] did it give?
Its value is 2.

And the “Number of differentially expressed genes identified: Spinal Cord” value [11]?
The value was 7.

What about the “Number of differentially expressed genes identified: Whole blood” value [11] of the same compound?
Its value is 19.

What about the “Number of differentially expressed genes identified: Cerebellum” value [12] of the same compound?
Its value is 3.

What about the “Number of differentially expressed genes identified: Spinal Cord” value [12] of the same compound?
Its value is 2.

What about the “Number of differentially expressed genes identified: Whole blood” value [12] of the same compound?
The value was 7.

What about the “FC Agxt2l1 (1431406_PM_at)” value [13] of the same compound?
Its value is 1.78.

What about the “FC Cxcl11 (1419697_PM_at)” value [13] of the same compound?
The value was −3.36.

And the “FC Ddx58 (1436562_PM_at)” value [13]?
Its value is −1.67.

And the “FC Ifi44 (1423555_PM_a_at)” value [13]?
Its value is −1.99.

What about the “FC Ifit1 (1450783_PM_at)” value [13] of the same compound?
The value was −1.67.

What about the “FC Plac8 (1451335_PM_at)” value [13] of the same compound?
The value was −2.04.

What about the “FC Tor3a (1450454_PM_at)” value [13] of the same compound?
Its value is −1.57.

What about the “FC 1439946_PM_at (no gene symbol)” value [14] of the same compound?
Its value is −1.62.

What about the “FC Dbp (1418174_PM_at)” value [14] of the same compound?
Its value is −1.58.

And the “FC 1459557_PM_at (no gene symbol)” value (tissue not given, 100MMF-vs-Veh, 7 h)?
Its value is 2.30.

What about the “FC 1442025_PM_a_at (no gene symbol)” value [15] of the same compound?
The value was −1.84.

What about the “FC 1442026_PM_at (no gene symbol)” value [15] of the same compound?
The value was −1.91.

And the “FC 4933423P22Rik (1454223_PM_at)” value [15]?
Its value is 1.53.
